Experiments:
Format in all cases: functional
Details in all cases: CF-1, ip
Mus musculus [1] = assay: Effect on motor activity in ip dosed albino CF-1 mouse by dish test
Mus musculus [2] = assay: Anticonvulsant activity in ip dosed albino CF-1 mouse assessed as inhibition of strychnine-induced seizures
Mus musculus [3] = assay: Anticonvulsant activity in ip dosed albino CF-1 mouse assessed as inhibition of maximal electric shock-induced seizures
Mus musculus [4] = assay: Antidepressant activity in ip dosed albino CF-1 mouse assessed as inhibition of ethanol-induced response
Mus musculus [5] = assay: Anticonvulsant activity in ip dosed albino CF-1 mouse assessed as inhibition of pentylenetetrazole-induced seizures
Mus musculus [6] = assay: Effect on motor activity in ip dosed albino CF-1 mouse by chimney test
Mus musculus [7] = assay: Anticonvulsant activity in ip dosed albino CF-1 mouse assessed as inhibition of thiosemicarbazide-induced seizures
Mus musculus [8] = assay: Anticonvulsant activity in ip dosed albino CF-1 mouse assessed as inhibition of nicotine-induced seizures
Mus musculus [9] = assay: Effect on motor activity in ip dosed albino CF-1 mouse by traction test
Mus musculus [10] = assay: Anxiolytic activity in ip dosed albino CF-1 mouse under hypoxic stress
Mus musculus [11] = assay: Effect on motor activity in ip dosed albino CF-1 mouse by pedestal test

Row | Compound | ED50 (Mus musculus [1]) | ED50 (Mus musculus [2]) | ED50 (Mus musculus [3]) | ED50 (Mus musculus [4]) | ED50 (Mus musculus [5]) | ED50 (Mus musculus [6]) | ED50 (Mus musculus [7]) | ED50 (Mus musculus [8]) | ED50 (Mus musculus [9]) | ED50 (Mus musculus [10]) | ED50 (Mus musculus [11])
1 | Cc1nnc2n1-c1ccc(Cl)cc1C(c1ccccc1Cl)=NC2O (stereo not given) | 8 mg/kg | > 80 mg/kg | > 100 mg/kg | > 80 mg/kg | 14 mg/kg | 45 mg/kg | 11.2 mg/kg | 10 mg/kg | > 100 mg/kg | > 100 mg/kg | 11 mg/kg
2 | OCc1nnc2n1-c1ccc(Cl)cc1C(c1ccccc1)=NC2 | 2 mg/kg | 9.9 mg/kg | 50 mg/kg | 1.8 mg/kg | 0.22 mg/kg | 0.63 mg/kg | 0.08 mg/kg | 0.08 mg/kg | 8 mg/kg | 0.02 mg/kg | 
3 | CN(C)Cc1nnc2n1-c1ccc(Cl)cc1C(c1ccccc1)=NC2O (stereo not given) | 5 mg/kg | > 40 mg/kg | > 100 mg/kg | > 20 mg/kg | 4 mg/kg | 4 mg/kg | 0.88 mg/kg | 2.2 mg/kg | 22 mg/kg | 25 mg/kg | 22 mg/kg
4 | OCc1nnc2n1-c1ccc(Cl)cc1C(c1ccccc1Cl)=NC2 | 0.03 mg/kg | 0.5 mg/kg | 89 mg/kg | 0.4 mg/kg | 0.018 mg/kg | 0.14 mg/kg | 0.014 mg/kg | 0.01 mg/kg | 0.6 mg/kg | 0.5 mg/kg | 0.17 mg/kg
5 | OCc1nnc2n1-c1ccc(Cl)cc1C(c1ccccc1Cl)=NC2O (stereo not given) | 5 mg/kg | > 80 mg/kg | > 100 mg/kg | 50 mg/kg | 32 mg/kg | 2.2 mg/kg | 0.39 mg/kg | 1 mg/kg | > 100 mg/kg | 30 mg/kg | 44 mg/kg
6 | OCc1nnc2n1-c1ccc(Cl)cc1C(c1ccccc1)=NC2O (stereo not given) | 56 mg/kg | > 80 mg/kg | > 100 mg/kg | > 80 mg/kg | 40 mg/kg | > 80 mg/kg | 8.9 mg/kg | 6.2 mg/kg | > 100 mg/kg | > 50 mg/kg | > 80 mg/kg
7 | Clc1ccc2c(c1)C(c1ccccc1)=NCc1nccn1-2 | 5 mg/kg | 7 mg/kg | 32 mg/kg | 3.6 mg/kg | 2.2 mg/kg | 3.6 mg/kg | 1.6 mg/kg | 1 mg/kg | 16 mg/kg | 25 mg/kg | 4 mg/kg
8 | OC1N=C(c2ccccc2)c2cc(Cl)ccc2-n2ccnc21 (stereo not given) | 6 mg/kg | > 80 mg/kg | 63 mg/kg | 7.9 mg/kg | 6.3 mg/kg | > 25 mg/kg | 6.3 mg/kg | 4 mg/kg | 32 mg/kg | 60 mg/kg | 7 mg/kg
9 | Cc1nnc2n1-c1ccc(Cl)cc1C(c1ccccc1)=NC2O (stereo not given) [4-HYDROXY-ALPRAZOLAM] | 6.3 mg/kg | 25 mg/kg | > 50 mg/kg | 10 mg/kg | 0.7 mg/kg | 6.3 mg/kg | 5 mg/kg | 4 mg/kg | 23 mg/kg | 6.2 mg/kg | 20 mg/kg
10 | CN(C)Cc1nnc2n1-c1ccc(Cl)cc1C(c1ccccc1)=NC2 [ADINAZOLAM] | 1.5 mg/kg | > 200 mg/kg | 100 mg/kg | 2.2 mg/kg | 0.8 mg/kg | 3.6 mg/kg | 0.15 mg/kg | 0.2 mg/kg | 5.6 mg/kg | 1.9 mg/kg | 2.8 mg/kg
11 | Cc1nnc2n1-c1ccc(Cl)cc1C(c1ccccc1)=NC2 [ALPRAZOLAM] | 0.15 mg/kg | 0.3 mg/kg | 25 mg/kg | 0.18 mg/kg | 0.13 mg/kg | 0.09 mg/kg | 0.16 mg/kg | 0.02 mg/kg | 0.6 mg/kg | 0.02 mg/kg | 0.23 mg/kg
12 | CN1C(=O)CN=C(c2ccccc2)c2cc(Cl)ccc21 [DIAZEPAM] | 0.25 mg/kg | 4 mg/kg | 25 mg/kg | 1 mg/kg | 0.8 mg/kg | 1.2 mg/kg | 0.4 mg/kg | 0.1 mg/kg | 4 mg/kg | 0.2 mg/kg | 0.7 mg/kg
13 | O=C1CN=C(c2ccccc2)c2cc(Cl)ccc2N1 [NORDAZEPAM] | 0.5 mg/kg | 20 mg/kg | > 100 mg/kg | 1.8 mg/kg | 1.6 mg/kg | 0.7 mg/kg | 1.8 mg/kg | 0.3 mg/kg | 7 mg/kg | 0.7 mg/kg | 0.9 mg/kg
14 | O=C1Nc2ccc(Cl)cc2C(c2ccccc2)=NC1O (stereo not given) [OXAZEPAM] | 1.1 mg/kg | 9 mg/kg | 79 mg/kg | 1.8 mg/kg | 0.7 mg/kg | 1.8 mg/kg | 0.9 mg/kg | 0.14 mg/kg | 13 mg/kg | 12.5 mg/kg | 2 mg/kg
15 | CN1C(=O)C(O)N=C(c2ccccc2)c2cc(Cl)ccc21 (stereo not given) [TEMAZEPAM] | 0.36 mg/kg | 2.8 mg/kg | 10 mg/kg | 0.32 mg/kg | 0.3 mg/kg | 0.45 mg/kg | 0.3 mg/kg | 0.063 mg/kg | 4 mg/kg | 0.2 mg/kg | 0.7 mg/kg
16 | Cc1nnc2n1-c1ccc(Cl)cc1C(c1ccccc1Cl)=NC2 [TRIAZOLAM] | 0.03 mg/kg | 0.22 mg/kg | 30 mg/kg | 0.7 mg/kg | 0.009 mg/kg | 0.08 mg/kg | 0.02 mg/kg | 0.004 mg/kg | 0.3 mg/kg | 0.035 mg/kg | 0.03 mg/kg

— ChEMBL document CHEMBL3244316, “Pharmacology of some metabolites of triazolam, alprazolam, and diazepam prepared by a simple, one-step oxidation of benzodiazepines” (1978)
